{"source": "patent US20210393547A1", "about": "“USE OF EMODIN IN TREATING RETINAL ISCHEMIA OR A DISEASE, CONDITION, OR DISORDER ASSOCIATED WITH RETINAL ISCHEMIA” (priority 2020, published 2021)", "key": {"β-catenin": {"system": "β-catenin", "experiment": "Western blot of ischemic retina, β-catenin to β-actin ratio", "type": "in vivo, rat", "settings": "n=6, mean±S.E", "description": "Emodin was purchased from Sigma-Aldrich (E7881; 90%; storage at 2-8° C.; from Frangula bark; St. Louis, Mo., United States). Drug administration for different procedures, namely ERG, fluorogold RGC labelling, cresyl violet retinal staining and Western blot assays, were described in Tables 3 to 6. Vehicle or emodin (5 μL) was administered via an intravitreous injection route so that these agents were then able to be directly diffused to the target. Emodin was dissolved in vehicle (DMSO:distilled water=1:3). The defined final cellular concentrations of administered drug were 0.25 or 0.5 μM, which were achieved after 40 times dilution from the stock concentrations, namely 10 or 20 μM, based on an arbitrary definition of the vitreous volume as 200 μL. To test a wider range of dose-response, 4 μM of emodin was thus added in the animal experiments. […] Denatured proteins were then obtained using lysis buffer (mammalian protein extraction reagent; […]), the samples were then sonicated and quantified to give equivalent amounts of 30 μg/30 μl/well. […] Finally, the PVDF membranes were then developed using an enhanced chemiluminescent analysis system ([…]) and scanned using an imager (Amersham Imager; LifeSciences); the amount of each protein was quantified according to scanning densitometry."}, "[1]": {"system": "retinal ganglion cells (RGC) in ischemic retina of Wistar rats", "experiment": "Retrograde fluorogold labeling of RGCs after retinal ischemia/reperfusion", "type": "in vivo, rat", "settings": "n=4, mean±SE", "description": "Emodin was purchased from Sigma-Aldrich (E7881; 90%; storage at 2-8° C.; from Frangula bark; St. Louis, Mo., United States). Drug administration for different procedures, namely ERG, fluorogold RGC labelling, cresyl violet retinal staining and Western blot assays, were described in Tables 3 to 6. Vehicle or emodin (5 μL) was administered via an intravitreous injection route so that these agents were then able to be directly diffused to the target. Emodin was dissolved in vehicle (DMSO:distilled water=1:3). The defined final cellular concentrations of administered drug were 0.25 or 0.5 μM, which were achieved after 40 times dilution from the stock concentrations, namely 10 or 20 μM, based on an arbitrary definition of the vitreous volume as 200 μL. To test a wider range of dose-response, 4 μM of emodin was thus added in the animal experiments. The Vehicle+IR and Emo+IR groups (pre-ischemic administration of emodin 4, 10 or 20 μM) were subjected to following the experimental procedures; these were initial pre-ischemic intravitreous injection (vehicle or emodin), retinal ischemia induction 1 day later, and sacrifice of the animal on the following day to allow the various post-mortem procedures except ERG. […] Finally, the samples were then analyzed by fluorescent microscopy. The RGC density was defined as the total RGC amount divided by the whole retinal area and its mean was then calculated."}}, "data": [{"smiles": "Cc1cc(O)c2c(c1)C(=O)c1cc(O)cc(O)c1C2=O", "note": "[emodin, 6-methyl-1,3,8-trihydroxyanthraquinone]", "values": [{"measurement": "ratio of β-catenin to β-actin protein level", "setting": "β-catenin; Emo10+IR: pre-ischemic intravitreous 10 μM emodin, Sham normalized to 1, Vehicle+IR 1.64", "value": "1.18±0.24"}, {"measurement": "ratio of β-catenin to β-actin protein level", "setting": "β-catenin; Emo20+IR: pre-ischemic intravitreous 20 μM emodin, P=0.02 vs Vehicle+IR, Sham normalized to 1", "value": "1.00±0.19"}, {"measurement": "RGC density (retrograde fluorogold labeled)", "setting": "[1]; Emo10+IR: pre-ischemic intravitreous 10 μM emodin, P<0.01, Sham 5323.53, Vehicle+IR 2069.12", "value": "3345.59±206.80 /0.17 mm^2"}, {"measurement": "RGC density (retrograde fluorogold labeled)", "setting": "[1]; Emo20+IR: pre-ischemic intravitreous 20 μM emodin, P<0.001", "value": "4623.53±179.48 /0.17 mm^2"}]}]}
